Experimental data from patent US5840940A, “Linoleoylamide based ceramide derivative and its use in cosmetic preparations for the treatment of dry skin” (Gist-Brocades B.V., priority 1994, dated 1998).
Entries after “also recorded” stand apart in the source; their conditions may differ.

How the values were obtained:
[1] = Solubility in emollients (visual inspection, maximum concentration before the solution turned cloudy); type: physicochemical
Experimental: Increasing amounts of the compound were added to the solvent and stirred under nitrogen for 30 minutes at 45° C. After cooling to room temperature (22°±2° C.) the solutions were kept in the dark. After 1, 24 and 48 hours the solutions were visually inspected. The maximum concentration was determined before the solution turned cloudy, indicating the presence of insoluble crystals.

[2] = tested on: healthy skin; assay: Skin humidity of healthy skin (corneometer CM 820 PC), long-term effects of ceramide IIIA; type: in vivo, female volunteers (human); conditions: creams with 0.2% and 0.5% ceramide IIIA, twice daily, 28 days, compared to placebo
Experimental: (§1) The corneometer CM 820 PC (Courage and Khazaka, Cologne, Germany) registers the electrical capacitance of the skin surface, which is a measure of the degree of moisture on the skin's surface. The capacitance is expressed digitally in arbitrary units (a.u.). Three measurements were performed on each test area and the mean was used to define hydration state of the stratum corneum.
(§2) The corneometer comprises a console and its sensor. The sensor is connected to the console by a special plug and coiled cable. The measurement is indicated on the 40×18 mm display screen on the console as a three-place number. The display also fulfils other information functions.
The sensor is rectangular in shape. Its special glass coated active front surface can be moved axially, and has a stroke of at least 3 mm. […]
(§3) The corneometer is completely automatic in operation. In order to carry out a measurement, the measuring head is pressed against the area of skin to be measured. […]
Measurements were carried out at a temperature of 22°±1° C. and a relative humidity of 60±10%. […] Initially untreated skin was measured in all three areas to find baseline values. […]
Measurements were evaluated during the treatment period on day 7, 14 and 28 two hours after the last daily application. The application was ceased on day 28 and further measurements were evaluated on day 30 and 32. […]

[3] = tested on: SDS-damaged skin; assay: Trans-epidermal water loss (TEWL) / barrier recovery of SDS-damaged skin (Tewameter); type: in vivo, female volunteers (human)
Experimental: Measurements of trans-epidermal water loss (TEWL) were performed with the Tewameter (Courage & Khazaka, Cologne, Germany). The Tewameter is a device for measurement of water evaporation on skin surfaces based on the diffusion principle discovered by A. Fick in 1885.
Five female volunteers at the age of 22-43 years with healthy skin were included in the test.
Measurements were carried out at a temperature of 22°±1° C. and a relative humidity of 60±10%. Subjects were accustomed to ambient conditions for 20 min prior to any measurement. The test was carried out on the volar forearms. The skin of the forearms was treated with a 5% aqueous solution of sodium lauryl sulphate (SDS) and an occlusive dressing applied. The dressing was removed 2 h later, and the regions gently washed with water and air-dried. After 30 min the measurements were done. Then the three test products were applied, one area remained untreated. The dose of application was about 2 mg/cm^2. In the following 14 days a home application in the morning and evening took place.
Measurements were evaluated during the treatment period on day 3, 7 and 14 one hour after the last daily application. Use of other cosmetic products was restricted on the test areas throughout the whole study.

[4] = tested on: SDS-damaged skin; assay: Skin humidity of SDS-damaged skin (corneometer CM 820 PC); type: in vivo, female volunteers (human); conditions: creams with 0.2% and 0.5% ceramide IIIA, 14 days, compared to placebo
Experimental: as §1, §2
The sensor is rectangular in shape. Its special glass coated active front surface can be moved axially, and has a stroke of at least 3 mm. The measuring principle demands that the sensor surface be placed flat on the test object at a constant pressure. In order to ensure this as reproducibly as possible, the front surface of the measuring head has been designed to be very small (7×7 mm). […]
as §3
Measurements were evaluated during the treatment period on day 3, 7 and 14 one hour after the last daily application. […]

[5] = isocetyl alcohol (Eutanol G16) and/or isostearic acid (Emersol)
[6] = isocetyl alcohol (Eutanol G16), stirred 45° C., room temperature (22°±2° C.), 1, 24 and 48 hours

Structure (SMILES) | Solubility [1, 5] | Solubility [1, 6] [% w/v] | Moisturizing effect (skin humidity) [2] | Trans-epidermal water loss ([3]; SDS-damaged skin, 14 days treatment, compared to placebo) | Restoration of the barrier layer ([3]; surfactant (SDS)-pretreated skin, compared to placebo product) | Solubility, in words ([1]; emollient solvents, compared with saturated analogue and ceramide 1) | Moisturizing effect (skin humidity) [4]
CCCCCCCCCCCCCCCCCC(=O)N[C@@H](CO)[C@H](O)[C@H](O)CCCCCCCCCCCCCC [Ceramide III, N-stearoylphytosphingosine, reference compound] | less than 0.2 % (w/v) | 0.16 | – | – | – | – | –
CCCCC/C=C\C/C=C\CCCCCCCC(=O)N[C@@H](CO)[C@H](O)[C@H](O)CCCCCCCCCCCCCC [Ceramide IIIA, N-linoleoylphytosphingosine] | ≥ 1 % (w/v) | 5 | clear moisture-retaining effect on healthy skin; also recorded: clear moisturizing effect compared to placebo | a reduction of trans-epidermal water loss | high capacity for restoration of the impaired lipid barrier of the skin; also recorded: quicker recovery of the barrier layer of SDS-treated skin than the placebo product | solubilizes much better than its saturated analogue and than ceramide 1 | increase of skin humidity of damaged skin compared to placebo
